In assay [1] the test system is Pseudomonas aeruginosa Walter. Kind of assay: in vivo test against experimental Pseudomonas infection in mice. More on the design: species or system Female NMRI mice. Particulars: sc, 168 h, dose at which 50% of the animals survived, subcutaneous, 6 times first day, twice on second and third day, observation 7 days. The protocol: (§1) The compounds according to the invention were tested in vivo in mice against experimental infections. As pathogenic bacteria E.coli ATCC 11775 and Pseudomonas aeruginosa Walter were used. An intraperitoneal infection was induced in each mouse with 0.2 ml of a 5% mucin suspension of the bacteria corresponding to about 1.4×10^6 E. coli germs and 1.3×10^6 pseudomonas germs/mouse. Female NMRI mice were used, divided into groups of 10 animals. Two groups were untreated and the remaining groups were treated with different doses of the penicillins to be tested to determine the ED50 (dose at which 50% of the animals survived). The groups infected with E. coli were on the first day treated with the test compound three times ([…] post infectionem) and on the second day twice. The groups with the pseudomonas infection were on the first day treated with the test compound 6 times (1, 3, 5, 7, 9 and 11 hours post infectionem) and on the second and third day twice.
(§2) The observation time was in both cases 7 days.

Assay [2] concerns Klebsiella pneumoniae ATCC 10031. Kind of assay: serial dilution test in the microtiter system, MIC. In kind it is cell-based. Particulars: ATCC10031, Klebs. pneum. ATCC 10031, 37° C., 18-20 hours. Here is the method:
(§3) The tests were performed according to the method of the serial dilution test in the microtiter system. The effect of the test substances on bacteriostasis was examined in a fluid medium. The bacteristatic activity was examined at the following concentrations: 80, 40, 20, 10, 5, 2.5, 1.25, 0.6, 0.3, 0.08 and 0.01 μgm/ml.
(§4) The nutrient medium consisted of: 10 gm of peptone, 8 gm of meat extract oxoid, 3 gm of sodium chloride, and 2 gm of sec. sodium phosphate diluted with distilled water to 1000 ml (pH 7.2-7.4). Only in the test against streptococci was 1% of glucose added. The age of the primary cultures was about 20 hours. The standardization of the microorganism suspension was effected by means of a photometer according to the method of Eppendorf (test tube diameter 14 mm, filter 546 nm), using for comparison a barium sulfate suspension formed by the addition of 3.0 ml of 1% barium chloride solution to 97 ml of 1% sulfuric acid. After the standardization, the Streptococcus aronson was further diluted to a concentration of 1:15 and the other microorganisms to a concentration of 1:1500 using a sodium chloride solution. 16 mgm of the test compound were placed into a 10 ml measuring flask, and the flask was filled up to the mark with the solvent. The further dilution series was standardized with distilled water or the particular solvent.
(§5) The cavities of microtiter plates were filled with 0.2 ml of nutrient medium. Then, 0.01 ml of the appropriate test compound solution was added, followed by inoculation with 0.01 ml of the standardized microorganism suspension. The bacteria were incubated at 37° C. for 18-20 hours. Control tests using only the solvent were carried out simultaneously.
(§6) The measurement was carried out macroscopically to determine the minimum inhibitory concentration (the lowest still bacteriostatically effective concentration).
(§7) Staphylococcus aureus SG 511, Escherichia coli ATCC 9637 and 11775, Pseudomonas aeruginosa Hamburgensis, ATCC 10145 and Pseudomonas aeruginosa Walter, Serratia marcescens ATCC 13880, Klebsiella pneumoniae ATCC 10031 and 272 and Proteus mirabilis Hamburgensis.

In assay [3] the test system is Proteus mirabilis Hamburgensis. Kind of assay: serial dilution test in the microtiter system, MIC. Type of assay: cell-based. The following applies: Prot. mirabilis ham., 37° C., 18-20 hours. Here is the method:
as §3, §4, §5, §6, §7

Assay [4] concerns Klebsiella pneumoniae 272. Nature of the assay: serial dilution test in the microtiter system, MIC. Type of assay: cell-based. Particulars: Klebs. pneum. 272, 37° C., 18-20 hours. Here is the method:
as §3, §4, §5, §6, §7

The test system of assay [5] is Escherichia coli ATCC 9637. Kind of assay: serial dilution test in the microtiter system, MIC. Type of assay: cell-based. The following applies: ATCC9637, E. Coli ATCC 9637, 37° C., 18-20 hours. The protocol:
as §3, §4, §5, §6, §7

The test system of assay [6] is Serratia marcescens ATCC 13880. Nature of the assay: serial dilution test in the microtiter system, MIC. Type of assay: cell-based. The following applies: ATCC13880, Serrat. marsec., 37° C., 18-20 hours. Here is the method: as §3, §4, §5, §6, §7
In assay [7] the test system is Pseudomonas aeruginosa Walter. Nature of the assay: serial dilution test in the microtiter system, MIC. In kind it is cell-based. Particulars: Pseud. aerug. Walter, 37° C., 18-20 hours. The protocol:
as §3, §4, §5, §6, §7

For assay [8], the system named is Pseudomonas aeruginosa Hamburgensis. Nature of the assay: serial dilution test in the microtiter system, MIC. Type of assay: cell-based. Particulars: Pseud. aerug. hamb., 37° C., 18-20 hours. Here is the method: as §3, §4, §5, §6, §7
Assay [9] concerns Escherichia coli ATCC 11775. Kind of assay: serial dilution test in the microtiter system, MIC. Type of assay: cell-based. The following applies: ATCC11775, E. Coli ATCC 11775, 37° C., 18-20 hours. The protocol:
as §3, §4, §5, §6, §7

The test system of assay [10] is Pseudomonas aeruginosa ATCC 10145. Nature of the assay: serial dilution test in the microtiter system, MIC. In kind it is cell-based. The following applies: ATCC10145, Pseud. aerug. ATCC 10145, 37° C., 18-20 hours. Here is the method:
as §3, §4, §5, §6, §7

Assay [11] relates to E.coli ATCC 11775. Nature of the assay: in vivo test against experimental E. coli infection in mice. Also on record: species or system Female NMRI mice. Particulars: Escherichia coli, ATCC11775, sc, 168 h, dose at which 50% of the animals survived, subcutaneous, three times first day, twice second day, observation 7 days. The protocol: as §1, §2

≈ marks a conversion by molar mass, not a printed value.

The ED50 is the midpoint of the dose-response relation. The MIC is the smallest concentration in the dilution series that meets the test's criterion for growth inhibition. In the case of `COCCNc1ncc(NC(=O)N[C@@H](C(=O)N[C@@H]2C(=O)N3[C@@H]2SC(C)(C)[C@@H]3C(=O)O)c2ccc(O)cc2)c(O)n1` [A, D-α-[3-(4-hydroxy-2-{2'-methoxyethylamino}-5-pyrimidinyl)-ureido]-p-hydroxybenzyl-penicillin sodium], the ED50 in [1] is 1.5 mg/kg; in assay [11] it was 2 mg/kg. Moreover, the MIC in assay [2] worked out at 20 mg/L; in assay [3], 0.6 mg/L; in assay [4], 40 mg/L; in assay [5] it was 1.25 mg/L; in [6] it was 0.6 mg/L; in assay [7], 5 mg/L. Besides, the minimum inhibitory concentration (MIC) in assay [8], in assay [9] and in assay [10] was 1.25 mg/L in each case.

Take `CC1(C)S[C@@H]2[C@H](NC(=O)[C@H](NC(=O)Nc3cnc(NCCCO)nc3O)c3ccc(O)cc3)C(=O)N2[C@H]1C(=O)O` [B, D-α-[3-(4-hydroxy-2-{3'-hydroxypropylamino-}-5-pyrimidinyl)-ureido]-p-hydroxy-benzylpenicillin sodium]: the ED50 in [1] is 1.2 mg/kg; in assay [11] it was 0.8 mg/kg. The minimum inhibitory concentration (MIC) in [2] was found to be 10 mg/L; in assay [3], 0.3 mg/L; in [4], 10 mg/L; in assay [5], 0.6 mg/L; in assay [6], 1.25 mg/L; in assay [7] it was 5 mg/L. Moreover, the MIC in [8] amounted to 1.25 mg/L; in assay [9] it was 0.6 mg/L; in assay [10], 1.25 mg/L.

On to `CCOC(=O)CCNc1ncc(NC(=O)NC(C(=O)NC2C(=O)N3C2SC(C)(C)C3C(=O)O)c2ccc(O)cc2)c(O)n1` [D, D-α-[3-(2-{2'-ethoxycarbonylethylamino}-4-hydroxy-5-pyrimidinyl)-ureido]-p-hydroxy-benzylpencillin sodium], for which the MIC in assay [2] was 10 mg/L; in [3], 0.3 mg/L; in assay [4], 10 mg/L; in assay [5], 0.3 mg/L; in assay [6] it was 1.25 mg/L; in assay [7] it was 2.5 mg/L. In addition, the MIC in assay [8] was 2.5 mg/L; in assay [9], 0.6 mg/L; in [10], 2.5 mg/L. This molecule also displayed an ED50 in assay [11] of 4.2 mg/kg.

With `CC1(C)S[C@@H]2[C@H](NC(=O)[C@H](NC(=O)N3CCNC3=O)c3ccccc3)C(=O)N2[C@H]1C(=O)O` [F, azlocillin, reference compound], the MIC in [2] was found to be 40 mg/L (≈ 86.7 µM); in [3], 1.25 mg/L (≈ 2.71 µM); in assay [4], 40 mg/L (≈ 86.7 µM); in assay [6], 5 mg/L (≈ 10.8 µM).

(Values after patent US4289775A, “Penicillins” (Karl Thomae GmbH, priority 1979, dated 1981).)
